# System: 636577-100-R-J1-PDC complex spheroid viability
# Test: Anticancer human tumor 636577-100-R-J1-PDC patient-derived endometrial adenocarcinoma cell line growth inhibition [GQUAD]
# Conditions: for IC50: curve of first compound; for viability, T/C: stronger effect = lower value
# Text: DNA G-quadruplex Stabilizer Agents in Combinations in Complex Spheroids
# A high-throughput screen of multi-cell type tumor spheroids was designed to identify active combinations of DNA G-quadruplex stabilizer agents and targeted small molecules. Complex spheroids include a stromal component modeled by human endothelial cells (HUVEC) and fibroblasts modeled by human mesenchymal stem cells (MSCs). The concentration ranges selected for each drug and investigational agent were based upon clinically achievable concentrations if the clinical Cmax of the agent was known.
# Compounds. The drugs and investigational agents: pidnarulex (CX-5461; NSC782164), APTO-253 (NSC789042), BRACO-19 (NSC847499), peposertib (NSC802822), ceralasertib (NSC780249), elimusertib (NSC800525), camonsertib (NSC841442), AZD-1390 (NSC803789), olaparib (NSC753686), talazoparib (NSC767125), ART-558 (NSC835418), sotorasib (NSC818433), MRTX-1133 (NSC836407), SN-38 (NSC673596), topotecan (NSC609699), etoposide (NSC141540), doxorubicin (NSC123127), gemcitabine (NSC613327), 5-fluorouracil (NSC19893), paclitaxel (NSC125973), vemurafenib (NSC761431), panobinostat (NSC761190), R-306465 (JNJ-16241199; NSC773264), adavosertib (NSC754352), TP-3654 (NSC805149), carboplatin (NSC241240), KSQ-4279 (NSC840948), and staurosporine (NSC755774) were obtained from the National Cancer Institute (NCI) Developmental Therapeutics Program Chemical Repository (34). The FDA-approved anticancer drug set is available from the NCI Developmental Therapeutics Program. […] The stock solutions were prepared in dimethyl sulfoxide (DMSO, Sigma-Aldrich, St. Louis, MO, cat. D2650) at 800-fold the tested concentration and stored at -70 degrees C prior to their use. All drugs and investigational agents were tested over a range starting from a high concentration at or near the clinical Cmax and decreasing in half-log increments. If the clinical Cmax for an agent had not been determined, the highest concentration tested was 10 microM.
# 2.3 Cell Culture. All cells were maintained in an incubator at 37 degrees C and 5% CO2 with 95% humidity. The PDC lines were cultured according to standard operating procedures established by the NCI PDMR. All PDCs were thawed and cultured in Matrigel-coated flasks prepared with a working solution of 1X Ham's F-12 nutrient mix, without supplementation (Invitrogen, cat. 11765054), 100 U/mL penicillin-streptomycin (Invitrogen, cat. 15140122), and 2.5% Matrigel (Corning Inc., cat. 354248) for the first three passages. The 857933-349-R-J2-PDC line was cultured in 6C/Colon 1B media, which includes advanced DMEM/F-12 (Thermo Fisher Scientific, cat. 12634028), 10 mM HEPES (Thermo Fisher Scientific, cat. 15630080), 1X GlutaMAX supplement (Thermo Fisher Scientific, cat. 35050061), 0.1 mg/mL primocin (InvivoGen, cat. ant-pm-2), 10% defined fetal bovine serum, heat inactivated (HyClone Laboratories Inc., cat. SH30070.03HI), 50% L-WRN conditioned media (ATCC, cat. CRL-3276), 1.25 mM N-Acetyl-L-cysteine (Sigma-Aldrich, cat. A9165), 10 mM nicotinamide (Sigma-Aldrich, cat. N0636), 1X B-27 supplement (Thermo Fisher Scientific, cat. 17504044), 1X N-2 supplement (Thermo Fisher Scientific, cat. 17502048), 10 microM Y-27632 dihydrochloride (Tocris Bioscience, cat. 1254), and 50 ng/mL human EGF recombinant protein (Thermo Fisher Scientific, cat. PHG0311). The 485176-168-R4-J1-PDC line was cultured in Panc media, which includes all 6C/Colon 1B media components plus 100 ng/mL human FGF-10 (Thermo Fisher Scientific, cat. 100-26), 500 nM SB-431542 (Selleckchem, cat. S1067), and gastrin (Tocris, cat. 3006).
# […]
# [1] = second compound 0.0316 µM, first compound 0.0316 µM
# [2] = second compound 0.0316 µM, first compound 0.1 µM
# [3] = second compound 0.0316 µM, first compound 0.316 µM
# [4] = second compound 0.0316 µM, first compound 1 µM
# [5] = second compound 0.0316 µM, first compound 3.16 µM
# [6] = second compound 0.0316 µM, first compound 10 µM
# [7] = second compound 0.1 µM, first compound 0.0316 µM
# [8] = second compound 0.1 µM, first compound 0.1 µM
# [9] = second compound 0.1 µM, first compound 0.316 µM
# [10] = second compound 0.1 µM, first compound 1 µM
# [11] = second compound 0.1 µM, first compound 3.16 µM
# [12] = second compound 0.1 µM, first compound 10 µM
# [13] = second compound 0.316 µM, first compound 0.0316 µM
# [14] = second compound 0.316 µM, first compound 0.1 µM
# [15] = second compound 0.316 µM, first compound 0.316 µM
# [16] = second compound 0.316 µM, first compound 1 µM
# [17] = second compound 0.316 µM, first compound 3.16 µM
# [18] = second compound 0.316 µM, first compound 10 µM
# [19] = second compound 1 µM, first compound 0.0316 µM
# [20] = second compound 1 µM, first compound 0.1 µM
# [21] = second compound 1 µM, first compound 0.316 µM
# [22] = second compound 1 µM, first compound 1 µM
# [23] = second compound 1 µM, first compound 3.16 µM
# [24] = second compound 1 µM, first compound 10 µM
# [25] = second compound 3.16 µM, first compound 0.0316 µM
# [26] = second compound 3.16 µM, first compound 0.1 µM
# [27] = second compound 3.16 µM, first compound 0.316 µM
# [28] = second compound 3.16 µM, first compound 1 µM
# [29] = second compound 3.16 µM, first compound 3.16 µM
# [30] = second compound 3.16 µM, first compound 10 µM
# [31] = second compound 10 µM, first compound 0.0316 µM
# [32] = second compound 10 µM, first compound 0.1 µM
# [33] = second compound 10 µM, first compound 0.316 µM
# [34] = second compound 10 µM, first compound 1 µM
# [35] = second compound 10 µM, first compound 3.16 µM
# [36] = second compound 10 µM, first compound 10 µM
# 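Further: viability read after seven days of drug exposure.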
# 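Wherever viability, T/C is given: luminescence signal used as a proxy for viable cells; 100% = DMSO vehicle control wells.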
smiles,measurement,setting,value
C=CCn1c(=O)c2cnc(Nc3ccc(N4CCN(C)CC4)cc3)nc2n1-c1cccc(C(C)(C)O)n1 + Cc1[nH]c2ccc(F)cc2c1-c1nc2c3cccnc3c3ncccc3c2[nH]1,IC50,second compound 0.0316 µM,825 nM
same,IC50,second compound 0.1 µM,746 nM
same,IC50,second compound 0.316 µM,580 nM
same,IC50,second compound 1 µM,202 nM
same,IC50,second compound 3.16 µM,< 31.6 nM
same,IC50,second compound 10 µM,< 31.6 nM
same,"viability, T/C",[1],113%
same,"viability, T/C",[2],83.9%
same,"viability, T/C",[3],94%
same,"viability, T/C",[4],41%
same,"viability, T/C",[5],16.9%
same,"viability, T/C",[6],12.4%
same,"viability, T/C",[7],103%
same,"viability, T/C",[8],78%
same,"viability, T/C",[9],78.4%
same,"viability, T/C",[10],40.6%
same,"viability, T/C",[11],19.6%
same,"viability, T/C",[12],12.5%
same,"viability, T/C",[13],83%
same,"viability, T/C",[14],78.5%
same,"viability, T/C",[15],65%
same,"viability, T/C",[16],36.9%
same,"viability, T/C",[17],17.4%
same,"viability, T/C",[18],14%
same,"viability, T/C",[19],83.9%
same,"viability, T/C",[20],45.3%
same,"viability, T/C",[21],58.1%
same,"viability, T/C",[22],29.8%
same,"viability, T/C",[23],16.1%
same,"viability, T/C",[24],13.6%
same,"viability, T/C",[25],25.6%
same,"viability, T/C",[26],21.4%
same,"viability, T/C",[27],23.6%
same,"viability, T/C",[28],19.1%
same,"viability, T/C",[29],17.5%
same,"viability, T/C",[30],16.6%
same,"viability, T/C",[31],35%
same,"viability, T/C",[32],28.6%
same,"viability, T/C",[33],29.3%
same,"viability, T/C",[34],20.1%
same,"viability, T/C",[35],20.9%
same,"viability, T/C",[36],14.5%
COc1ncnc(C2CC2)c1-c1ncc2cnn(Cc3ccc(-c4nc(C(F)(F)F)cn4C(C)C)cc3)c2n1 + Cc1[nH]c2ccc(F)cc2c1-c1nc2c3cccnc3c3ncccc3c2[nH]1,IC50,second compound 0.0316 µM,> 10000 nM
same,IC50,second compound 0.1 µM,> 10000 nM
same,IC50,second compound 0.316 µM,> 10000 nM
same,IC50,second compound 1 µM,> 10000 nM
same,IC50,second compound 3.16 µM,< 31.6 nM
same,IC50,second compound 10 µM,< 31.6 nM
same,"viability, T/C",[1],86.6%
same,"viability, T/C",[2],67.6%
same,"viability, T/C",[3],77.3%
same,"viability, T/C",[4],57.8%
same,"viability, T/C",[5],66.7%
same,"viability, T/C",[6],75.3%
same,"viability, T/C",[7],74.8%
same,"viability, T/C",[8],57.1%
same,"viability, T/C",[9],87%
same,"viability, T/C",[10],54.6%
same,"viability, T/C",[11],79.9%
same,"viability, T/C",[12],67.6%
same,"viability, T/C",[13],63.8%
same,"viability, T/C",[14],60.6%
same,"viability, T/C",[15],62.8%
same,"viability, T/C",[16],64.5%
same,"viability, T/C",[17],77.3%
same,"viability, T/C",[18],66.6%
same,"viability, T/C",[19],57.8%
same,"viability, T/C",[20],59%
same,"viability, T/C",[21],60.1%
same,"viability, T/C",[22],50.2%
same,"viability, T/C",[23],50.1%
same,"viability, T/C",[24],57.4%
same,"viability, T/C",[25],20.8%
same,"viability, T/C",[26],27.6%
same,"viability, T/C",[27],22.6%
same,"viability, T/C",[28],28.4%
same,"viability, T/C",[29],27.5%
same,"viability, T/C",[30],26.1%
same,"viability, T/C",[31],28.9%
same,"viability, T/C",[32],29.5%
same,"viability, T/C",[33],26.4%
same,"viability, T/C",[34],27.1%
same,"viability, T/C",[35],32.1%
same,"viability, T/C",[36],32.6%
